Legend:
Type in all cases: cell-based, mouse
DBL-treated organoids [1] = experiment: Drug treatment of DBL-treated SG organoids (size, ORO, Ki67, cell size); settings: for organoid size: then drug for three days
Description: With a system that recapitulates important aspects of acne vulgaris, the extent that currently prescribed medications could affect its development was examined. Retinoids are derivatives of vitamin A, which serve as the first-line treatment for acne. Specifically, all-trans-Retinoic acid (ATRA; Tretinoin), formulated ATRA (Ret-Avit) and 13-cis RA (Isotrtinoin) are used worldwide. […] The differentiation program in the SG is a multi-step process. Cells prior to the onset or during early stage of differentiation express AR, which is known to reside upstream and lead to the expression of F[…]. […] Therefore, it was hypothesized that inhibition of c-Myc could serve as a beneficial treatment of acne vulgaris. For this aim, the 10058-F4 c-Myc inhibitor was administered to DBL-treated organoids and size, proliferation and differentiation were monitored.

[2] = test system: Blimp1−YFP+-derived sebaceous gland organoids; experiment: SG organoids treated with c-Myc inhibitor: size, cell size/number, proliferation, lipid staining
Protocol: For organoid generation a total of ˜1000 cells were mixed with 50 μl of Matrigel (BD Bioscience) and plated in 24-well plates. After polymerization of Matrigel, 500 μl of HFSC media containing growth factors; 20 ng ml-1 hFGF (Peprotech), 40 ng ml-1 mEGF (Peprotech), 500 ng ml-1 hR-spondin 1, 100 ng ml-1 mNoggin (Peprotech) and B-27 Supplement (50×) (Invitrogen)) was added. Organoid treatment with cMyc inhibitor 10058-F4 (50 Tocris Bioscience) or DMSO (as control) was performed for 4 days and renewed upon media change. Organoids were fixed in 4% PFA for 1 hour for immunofluorescence analysis or harvested for RNA extraction. Antibody staining was visualized using secondary antibodies conjugated to Alexa Fluor-488, Alexa Fluor-546, and Alexa Fluor-633. Analysis was performed on Zeiss LSM 880 confocal microscope. Oil-red-O (ORO) staining was performed by incubating samples in 0.18% ORO for 20 min and washing with PBS. Next, the effect of inhibiting c-Myc activity by administering the specific c-Myc inhibitor, 10058-F4 was monitored. […] Six-day old SG organoids were supplemented with the c-Myc inhibitor for 4 days. […] Since the effect on organoid size could result from either altered cell size or number both scenarios were examined. […] Whether the effect of c-Myc inhibition originates from an effect on cell proliferation and/or differentiation was examined next. Employing IF staining with two proliferative markers, Ki67 and MCM2, indicated a significant decline in Ki67+ (69%) and MCM2+ (72%) proliferative cells (FIG. 4J-L). […] This is in line with the reported role of c-Myc in regulating differentiation in the SG in vivo. […] Next, using Real time (RT)-PCR analysis, the levels of transcripts that are expressed in either SG differentiating or differentiated cells, which play a key role in this process were examined. Inhibition of c-Myc decreased the levels of all examined factors including Androgen Receptor (AR) and fatty acid synthase (FASN) (FIG. 4O).

[3] = test system: Blimp1−YFP+-derived sebaceous gland organoids; experiment: Real-time PCR of sebocyte differentiation markers in c-Myc inhibitor-treated SG organoids; settings: RT-PCR, inhibitor for 4 days
Protocol: Organoid treatment with cMyc inhibitor 10058-F4 (50 Tocris Bioscience) or DMSO (as control) was performed for 4 days and renewed upon media change. Organoids were fixed in 4% PFA for 1 hour for immunofluorescence analysis or harvested for RNA extraction.
(§1) RNA extraction, reverse transcription and real-time PCR: RNA was isolated using Trizol (Sigma) and up to 2 μg of RNA were subjected to cDNA synthesis (Applied Biosystems). Real time PCR was carried out using the PerfeCTa SYBR Green FastMix (Quanta), with the following gene-specific primers: RpLO: […] (SEQ ID NO: 1) and ATCTGCTTGGAGCCCACAT (SEQ ID NO: 2); AR: […] (SEQ ID NO: 3) and […] (SEQ ID NO: 4); PPAR-gamma: […] (SEQ ID NO: 5) and […] (SEQ ID NO: 6); PPAR-beta: TTCCTTCCAGCAGCTGTG (SEQ ID NO: 7) and TCGCACGCGTGGACC (SEQ ID NO: 8); FASN: […] (SEQ ID NO: 9) and […] (SEQ ID NO: 10). Amplicon levels were analyzed in triplicate and quantitated relative to a standard curve comprising cDNA, and values normalized to levels of the housekeeping gene (Rpl0). Reactions were: 3 min at 95° C., then 40 cycles of 10 sec at 95° C. and 30 sec at 60° C. with addition of melt curve step: 10 sec at 95° C., and increments of 0.5° C. every 5 sec between 65° C. and 95° C.
This is in line with the reported role of c-Myc in regulating differentiation in the SG in vivo. […] Next, using Real time (RT)-PCR analysis, the levels of transcripts that are expressed in either SG differentiating or differentiated cells, which play a key role in this process were examined. Inhibition of c-Myc decreased the levels of all examined factors including Androgen Receptor (AR) and fatty acid synthase (FASN) (FIG. 4O).

DBL-treated organoids [4] = experiment: RT-PCR of DBL-treated SG organoids after drug treatment; settings: then drug
Protocol: as §1
The differentiation program in the SG is a multi-step process. Cells prior to the onset or during early stage of differentiation express AR, which is known to reside upstream and lead to the expression of FASN35.
Retinols, such as 13-cis RA, are known to have severe side-effects and concerns have been raised regarding the teratogenicity of these compounds. This highlights the immediate need for alternative treatments. […] Therefore, it was hypothesized that inhibition of c-Myc could serve as a beneficial treatment of acne vulgaris. For this aim, the 10058-F4 c-Myc inhibitor was administered to DBL-treated organoids and size, proliferation and differentiation were monitored.

SG organoids = experiment: Acne vulgaris model: DHT, BRL, LIN administered to SG organoids (size, ORO, Ki67); settings: administration to organoids (single agents for 7 days; combinations)
Protocol: Therefore, as a first step, the potent dihydrotestosterone (DHT) androgen, the PPAR-γ BRL-49653 (BRL) activator and linoleic acid (LIN) known to activate PPAR-B38 were administered to organoids.

SG organoid = SG organoid as model organ to test drugs (caspase-3 inhibitors, Tretinoin); settings: for attenuation of SG organoid size: 100 uM, after 72 hours
Protocol: Organoids were generated as described herein and treated with two caspase-3 inhibitors (zDEVD-fmk at 100 uM and […] at 100 uM) to assess their effect on the SG. A known anti-acne drug, Tretinoin (10-100 uM) was also added as a positive control.

[5] = test system: freshly isolated α6+; ScaI−; Blimp1−YFP+ cells; experiment: Organoid generation from primary cells directly seeded in Matrigel with ROCK inhibitor; settings: cultures supplemented with ROCK inhibitor and GFs
Description: It was next examined if these Blimp1+ cell-derived organoids could be generated by isolating primary α6+; ScaI−; Blimp1−YFP+ cells and directly seeding them into Matrigel without a pre-culturing phase. […] Thus, these cultures were supplemented with a ROCK inhibitor (Y27632), which prevents cell-cell interaction-dependent anoikis.

[6] = IF staining, inhibitor for 4 days
[7] = six-day old SG organoids, inhibitor for 4 days

CC1=C(/C=C/C(C)=C/C=C/C(C)=C\C(=O)O)C(C)(C)CCC1 [13-cis RA, 13-cis-Retinoic acid]
number of ORO+ cells (DBL-treated organoids [1]; then drug): heightened number
organoid size (DBL-treated organoids [1]): significant decrease

CCc1ccc(C=C2SC(=S)NC2=O)cc1 [10058-F4, 5-[(4-Ethylphenyl)methylene]-2-thioxo-4-thiazolidinone]
decline in Ki67+ proliferative cells [2, 6]: 69%
decline in MCM2+ proliferative cells [2, 6]: 72%
lipid levels (ORO dye staining) ([2]; inhibitor for 4 days): significant decrease
decrease in organoid size ([2]; six-day old SG organoids, c-Myc inhibitor for 4 days, vs DMSO control): ~40%
decline in cell diameter, cells in the inner compartment [2, 7]: ~40%
diameter of individual cells in the outer proliferating layer of the organoid [2, 7]: modest size decrease
localization of c-Myc [2, 7]: did not affect
number of cells in the outer ring of the organoids [2, 7]: decreased
Androgen Receptor (AR) transcript level [3]: decreased
PPAR-β transcript level [3]: significantly attenuated
PPAR-γ transcript level [3]: significantly attenuated
fatty acid synthase (FASN) transcript level [3]: decreased
expression levels of lipid synthesis genes (DBL-treated organoids [4]): significantly lower
mRNA level of Cyclin D1 (DBL-treated organoids [4]): significant decrease
mRNA level of c-Myc (DBL-treated organoids [4]): significant decrease
decrease in the number of Ki67+ cells (DBL-treated organoids [1]; then drug): more than 80%
number of ORO+ cells (DBL-treated organoids [1]; then drug): significant decrease
size of individual inner cells (DBL-treated organoids [1]; then drug): decrease
organoid size (DBL-treated organoids [1]): significant decrease

C[C@]12CCC(=O)C[C@@H]1CC[C@@H]1[C@@H]2CC[C@]2(C)[C@@H](O)CC[C@@H]12 [DHT, dihydrotestosterone]
size of individual SG organoids (SG organoids): significantly increased

CC(=O)OCCN1C(=O)c2c(C)nc3ccc(S(=O)(=O)N4CCOCC4)cc3c2C1=O [Ivachtin]
attenuation of SG organoid size (SG organoid): about 30%

CCCCC/C=C\C/C=C\CCCCCCCC(=O)O [LIN, linoleic acid]
size of individual SG organoids (SG organoids): significantly increased

CC1=C(/C=C/C(C)=C/C=C/C(C)=C/C(=O)O)C(C)(C)CCC1 [Tretinoin, all-trans-Retinoic acid]
reduction of SG organoid size compared with the caspase-3 inhibitors (SG organoid; 10-100 uM, positive control): very similar
number of ORO+ cells (DBL-treated organoids [1]; then drug): heightened number
organoid size (DBL-treated organoids [1]): significant decrease

C[C@@H](N)[C@H]1CC[C@H](C(=O)Nc2ccncc2)CC1 [Y27632]
organoid generation from primary cells seeded into Matrigel without pre-culturing [5]: able to give rise to organoids, although at a lower efficiency

COC(=O)CC[C@H](NC(=O)[C@H](CC(=O)OC)NC(=O)OCc1ccccc1)C(=O)N[C@H](C(=O)N[C@@H](CC(=O)OC)C(=O)CF)C(C)C [zDEVD-fmk]
attenuation of SG organoid size (SG organoid): about 30%
cells positive for Ki67 (SG organoid; caspase-3 inhibitor treatment): greatly reduced
cells positive for MCM2 (SG organoid; caspase-3 inhibitor treatment): greatly reduced
